Assay results taken from patent US9468209B2, “Method for eradicating weeds with derivatives of 3-acetyl-5-sec-butyl-4-hydroxy-3-pyrrolin-2-one” (priority 2012, dated 2016).

Columns and labels:
[1] = test system: fluorescence of chlorophyll; assay: Fluorescence of chlorophyll of treated Crofton weed leaves; type: biochemical; settings: 50 μg/mL, strong light 12 hours
Description: (§1) Compounds 10-57 were dissolved in small amount of methanol. The solutions were then diluted with distilled water to a concentration of 50 μg/mL. A mixture of methanol and water in the same ratio as the sample solution was also prepared and used as control in the experiment. The healthy leaves of Crofton weed were washed in water for 30 minutes and then rinsed with distilled water. The clean and tissue dried leaves were placed in petri dish with the back-side of the leaves facing up. Wet filter paper was also placed in the in petri dish for moisture control. Water, methanol and chemical solutions of the analogues were applied to the back-side of each leaf. Test sample was then placed in vacuum chamber at 25° C. for 15 min followed by exposure to the strong light (400 μM m^−2 s^−1) for 12 hours. The leaf sample went through a series of test, and the Hill reaction rate, the electron transfer activity and fluorescence of chlorophyll were measured. Four leaves were used for each treatment and each test was repeated three times.

[2] = test system: photosystem II; assay: PSII oxygen evolution / electron transfer activity of treated Crofton weed leaves; type: biochemical; settings: 50 μg/mL, strong light 12 hours
Description: as §1

[3] = test system: Crofton weed; assay: Needle puncture pathogenic test on slightly wounded leaf of Crofton weed; type: in vivo; settings: Crofton weed leaf; for Avg. diameter of the spot after 24 h / Time of disease spot to occur: analogs with formula (I) and (II); for Time of Disease spot / Average diameter of spot after 24 h: 50 μg/mL, 25° C., natural light
Description: 3-acetyl-5-sec-butyl-4-hydroxy-3-pyrrolin-2-one analogs were dissolved in a small amount of methanol and diluted with water to a concentration of 5-100 μg/g. A pathogenic test was conducted by placing the toxic liquid on the slightly wounded leaf of Crofton weed with a needle. The test has shown that the pathogenic capability of 3-acetyl-5-sec-butyl-4-hydroxy-3-pyrrolin-2-one analogs with respect to Crofton weed increases with the increase of concentration. The spot diameter caused on the leaf of Crofton weed after 24 hours was 2 mm at 50 μg/g.
3-acetyl-5-sec-butyl-4-hydroxy-3-pyrrolin-2-one analogue (Table 3, compounds 10-57) was dissolved in small amount of methanol. The solution was then diluted with distilled water to a concentration of 50 μg/mL. Methanol solution with same concentration and pure distilled water were used as control of the experiment. A pathogenic test was conducted by placing the toxic liquid on the slightly wounded leaf of Crofton weed with a needle. The experiment was carried out at 25° C. under the natural light and each test was repeated 6 times. It was measure the diameter of the spot after 24 h. […] The size of the side chain also has an effect on their activity.
Fourteen salts of 3-acetyl-5-sec-butyl-4-hydroxy-3-pyrrolin-2-one analogs were dissolved in small amount of methanol and diluted with distilled water to a concentration of 50 μg/mL. Methanol/water mixture was also prepared and used as control. Needle puncture method was used for the test on the small pieces of Crofton weed. Each treatment was repeated six times or more. The test samples were kept under natural light at 25° C. for 24 hours. The diameters of damaged spot of the plant leaves were measured by vernier caliper.

[4] = test system: Hill reaction; assay: Hill reaction activity of treated Crofton weed leaves; type: biochemical; settings: 50 μg/mL, strong light 12 hours
Description: as §1

SMILES	Fv/Fm [1]	PSII Activity of oxygen evolution [2] [uMO2/mgChlh]	Avg. diameter of the spot after 24 h [3] [mm]	Time of disease spot to occur [3] [h]	Activity of Hill Reaction [4] [uMO2/mgChlh]	Time of Disease spot [3] [h]	Average diameter of spot after 24 h [3] [mm]
CCC1=C(O)C(C(C)CC)NC1=O (stereo not shown) [Compound 4]	0.83	28.01	2.97 ± 0.01	18.5 ± 1.55	51.13		
CCOC1=C(O)C(C(C)CC)NC1=O (stereo not shown) [Compound 5]	0.82	24.10	2.35 ± 0.14	20.7 ± 0.75	52.31		
CCC(C)C1NC(=O)C(CCc2ccccc2)=C1O (stereo not shown) [Compound 6]	0.81	27.11	2.12 ± 0.08	21.2 ± 3.85	50.04		
CCC(C)C1NC(=O)C(NCCCCl)=C1O (stereo not shown) [Compound 8]	0.79	24.65	2.53 ± 0.18	20.0 ± 1.51	49.05		
CCC(=O)NC1=C(O)C(C(C)CC)NC1=O (stereo not shown) [Compound 9]	0.83	23.33	2.80 ± 0.33	21.9 ± 2.00	50.12		
CC(=O)C1=C(O)CNC1=O [Compound 10]	0.79	47.55			84.32	29 ± 6.30	1.11 ± 0.16
CC(=O)C1=C(O)C(C)NC1=O (stereo not shown) [Compound 11]	0.82	46.41			80.00	21.5 ± 0	1.80 ± 0.41
CCC1NC(=O)C(C(C)=O)=C1O (stereo not shown) [Compound 12]	0.83	34.54			70.32	15.2 ± 0.35	2.77 ± 0.23
CCCC1NC(=O)C(C(C)=O)=C1O (stereo not shown) [Compound 13]	0.85	41.35			78.19	16.70 ± 0.21	5.21 ± 0.44
CCCCCCCC1NC(=O)C(C(C)=O)=C1O (stereo not shown) [Compound 17]	0.82	27.04			57.13	9.5 ± 2.36	7.94 ± 1.30
CCCCCCCCC1NC(=O)C(C(C)=O)=C1O (stereo not shown) [Compound 18]	0.80	39.98			67.27	12.00 ± 0.48	8.27 ± 0.61
CC(=O)C1=C(O)C(Cc2ccccc2)NC1=O (stereo not shown) [Compound 19]	0.79	40.07			63.43	24 ± 4.00	1.24 ± 0.10
CCCC(c1ccccc1)C1NC(=O)C(C(C)=O)=C1O (stereo not shown) [Compound 20]	0.82	43.40			57.23	21.1 ± 3.56	1.57 ± 0.04
CC=CC1NC(=O)C(C(C)=O)=C1O (stereo not shown) [Compound 21]	0.77	42.25			62.34	16.5 ± 1.30	2.89 ± 0.14
CC(=O)C1=C(O)C(C)(C)NC1=O [Compound 22]	0.82	38.05			56.16	20.0 ± 1.63	1.76 ± 0.24
CCC1(CC)NC(=O)C(C(C)=O)=C1O [Compound 23]	0.79	38.24			63.28	18.3 ± 2.17	2.23 ± 0.12
CCC1(C)NC(=O)C(C(C)=O)=C1O (stereo not shown) [Compound 24]	0.83	43.01			71.37	16.21 ± 3.55	2.43 ± 0.07
CCCC1(CCC)NC(=O)C(C(C)=O)=C1O [Compound 25]	0.82	57.12			97.55	15.22 ± 2.00	2.44 ± 0.10
CCCC1(C)NC(=O)C(C(C)=O)=C1O (stereo not shown) [Compound 26]	0.82	58.01			89.15	13.61 ± 1.35	3.31 ± 0.07
CCCC1(CC)NC(=O)C(C(C)=O)=C1O (stereo not shown) [Compound 27]	0.81	53.24			91.45	14.2 ± 4.15	3.18 ± 0.93
CCCCC1(CCCC)NC(=O)C(C(C)=O)=C1O [Compound 28]	0.82	31.76			75.03	16.9 ± 2.25	2.40 ± 0.11
CCCCC1(CC)NC(=O)C(C(C)=O)=C1O (stereo not shown) [Compound 30]	0.79	22.78			47.33	13.3 ± 2.00	4.53 ± 1.03
CCC(C)(C)C1NC(=O)C(C(C)=O)=C1O (stereo not shown) [Compound 32]	0.82	32.13			63.42	12.5 ± 3.75	4.82 ± 1.44
CC(=O)C1=C(O)C(CCC(C)C)NC1=O (stereo not shown) [Compound 33]	0.79	26.54			51.94	13.5 ± 0.75	4.17 ± 1.15
CC(=O)C1=C(O)C(CC(=O)O)NC1=O (stereo not shown) [Compound 34]	0.81	35.11			65.73	24.0 ± 0.02	1 ± 0.86
CCCC(C#N)C1NC(=O)C(C(C)=O)=C1O (stereo not shown) [Compound 38]	0.81	40.41			64.69	13.6 ± 0.50	9.82 ± 0.02
CC(=O)C1=C(O)C(C(C)C)NC1=O (stereo not shown) [Compound 39]	0.80	33.79			62.72	16.5 ± 2.15	4.89 ± 0.37
CSCCC1NC(=O)C(C(C)=O)=C1O (stereo not shown) [Compound 41]	0.83	41.32			59.07	20.8 ± 3.00	2.45 ± 0.24
CCC(C)C1NC(=O)C(C(=O)CCCl)=C1O (stereo not shown) [Compound 43]	0.83	47.80			63.35	20.1 ± 1.15	2.30 ± 0.28
